Numbers after ± are expanded uncertainties.
Assay: mn = molality of the nth substance listed, in mol/kg
Settings: 101.3 kPa, Liquid; for speed of sound: Sing-around technique in a fixed-path interferometer

O=C([O-])CCC(=O)[O-].[Na+].[Na+] [disodium succinate] + O
Settings | mass density, 298.15 K [kg/m3] | mass density, 308.15 K [kg/m3] | mass density, 318.15 K [kg/m3] | speed of sound, 298.15 K [m/s] | speed of sound, 308.15 K [m/s] | speed of sound, 318.15 K [m/s]
m1 = 0.0188 | 999.052 ± 0.34 | 996.011 ± 0.37 | 992.179 ± 0.37 | 1500.2 ± 0.98 | 1523.2 ± 0.99 | 1539.9 ± 0.99
m1 = 0.0239 | 999.583 ± 0.34 | 996.544 ± 0.36 | 992.703 ± 0.37 | 1501.1 ± 0.98 | 1524.1 ± 0.99 | 1540.6 ± 0.99
m1 = 0.0336 | 1000.61 ± 0.34 | 997.55 ± 0.35 | 993.703 ± 0.36 | 1502.7 ± 0.98 | 1525.6 ± 0.99 | 1542.1 ± 0.99
m1 = 0.0373 | 1001 ± 0.34 | 997.934 ± 0.35 | 994.083 ± 0.36 | 1503.4 ± 0.98 | 1526.2 ± 0.99 | 1542.7 ± 0.99
m1 = 0.0452 | 1001.82 ± 0.35 | 998.747 ± 0.34 | 994.887 ± 0.36 | 1504.9 ± 0.98 | 1527.5 ± 0.99 | 1544 ± 0.99
m1 = 0.0489 | 1002.2 ± 0.35 | 999.13 ± 0.35 | 995.266 ± 0.36 | 1505.4 ± 0.99 | 1528 ± 0.99 | 1544.6 ± 0.99
m1 = 0.0546 | 1002.79 ± 0.35 | 999.711 ± 0.34 | 995.841 ± 0.36 | 1506.3 ± 0.99 | 1528.9 ± 0.99 | 1545.3 ± 0.99
m1 = 0.0593 | 1003.28 ± 0.35 | 1000.19 ± 0.34 | 996.315 ± 0.35 | 1507.1 ± 0.99 | 1529.7 ± 0.99 | 1546.6 ± 0.99
m1 = 0.068 | 1004.18 ± 0.36 | 1001.08 ± 0.34 | 997.197 ± 0.35 | 1509 ± 0.99 | 1531.7 ± 0.99 | 1547.5 ± 0.99
m1 = 0.0763 | 1005.05 ± 0.36 | 1001.94 ± 0.35 | 998.046 ± 0.35 | 1510.5 ± 0.99 | 1532.4 ± 0.99 | 1548.5 ± 0.99
m1 = 0.0864 | 1006.09 ± 0.36 | 1002.96 ± 0.35 | 999.064 ± 0.34 | 1511.7 ± 0.99 | 1533.9 ± 0.99 | 1549.9 ± 0.99
m1 = 0.0935 | 1006.82 ± 0.37 | 1003.69 ± 0.35 | 999.785 ± 0.34 | 1512.8 ± 0.99 | 1535.1 ± 0.99 | 1551.2 ± 1
m1 = 0.1221 | 1009.74 ± 0.38 | 1006.56 ± 0.36 | 1002.63 ± 0.35 | 1517.5 ± 0.99 | 1539.5 ± 0.99 | 1555.2 ± 1
m1 = 0.2589 | 1023.44 ± 0.43 | 1020.07 ± 0.42 | 1016.03 ± 0.4 | 1539.8 ± 1 | 1560.3 ± 1 | 1575.1 ± 1
m1 = 0.3292 | 1030.32 ± 0.46 | 1026.85 ± 0.45 | 1022.73 ± 0.43 | 1551 ± 1 | 1570.8 ± 1 | 1585.2 ± 1
m1 = 0.4019 | 1037.3 ± 0.49 | 1033.75 ± 0.47 | 1029.56 ± 0.46 | 1562.4 ± 1 | 1581.6 ± 1 | 1595.8 ± 1
m1 = 0.4364 | 1040.57 ± 0.5 | 1036.98 ± 0.49 | 1032.77 ± 0.47 | 1567.8 ± 1 | 1586.6 ± 1 | 1600.7 ± 1
m1 = 0.5252 | 1048.89 ± 0.53 | 1045.2 ± 0.52 | 1040.92 ± 0.5 | 1582 ± 1 | 1599.5 ± 1 | 1612 ± 1
m1 = 0.6535 | 1060.59 ± 0.58 | 1056.74 ± 0.56 | 1052.37 ± 0.55 | 1601.2 ± 1 | 1617.8 ± 1 | 1629.2 ± 1
m1 = 0.7422 | 1068.47 ± 0.61 | 1064.55 ± 0.6 | 1060.13 ± 0.58 | 1615.1 ± 1 | 1630.5 ± 1 | 1641 ± 1.1
m1 = 0.9099 | 1083.03 ± 0.67 | 1078.94 ± 0.66 | 1074.41 ± 0.64 | 1639.8 ± 1.1 | 1653.3 ± 1.1 | 1662.7 ± 1.1
m1 = 1.168 | 1104.44 ± 0.76 | 1100.13 ± 0.74 | 1095.45 ± 0.72 | 1675.7 ± 1.1 | 1687.5 ± 1.1 | 1694.9 ± 1.1
m1 = 1.43 | 1125.04 ± 0.84 | 1120.37 ± 0.82 | 1115.74 ± 0.81 | 1711.2 ± 1.1 | 1720.9 ± 1.1 | 1726.2 ± 1.1
m1 = 1.748 | 1148.68 ± 0.94 | 1143.92 ± 0.92 | 1138.95 ± 0.9 | 1752.4 ± 1.1 | 1759 ± 1.1 | 1762.5 ± 1.1
